{
  "source": "patent US20220400680A1",
  "about": "“USE OF ACYLCYANAMIDES OR SALTS THEREOF FOR REGULATING PLANT GROWTH” (Alzchem Trostberg GmbH, priority 2019, published 2022)",
  "key": {"[1]": {"test_system": "Grape, type Pinot Noir (C4)", "assay": "Greenhouse test, cut wine sprouts C4 dipped in test solution, bud development stage", "assay_type": "in vivo, Vitis vinifera subsp. vinifera", "design": "key to Bud development stage, wine sprouts C4: Stage 0: Buds unchanged; Stage 1: Buds slightly swollen, first green tips visible; Stage 2: strongly swollen, green buds; Stage 3: Buds before breaking open, leaf or flower root already visible; Stage 4: Flower buds fully developed, but still closed, white petals already visible. In the case of the grapevine, stage 4 was the unfolding of the first leaves; Stage 5: Flowers fully open or, in the case of grapevine, unfolding of the flower roots (“Gescheine”) on the fully leafed sprouts", "how_it_was_run": "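Cut Pinot Noir grapevine sprouts were dipped in aqueous test solution (0.15 mol test substance, or 0.075 mol for bis-cyanamides, plus 0.15 g BreakThru OE-446 per 500 g total) and kept in water jars at about 22° C under natural light. Bud development was scored on a staged scale from closed buds to fully open flowers.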"}, "[2]": {"test_system": "table grapes type Red Globe", "assay": "Field test E2 table grapes Spain, bud burst", "design": "species or system Vitis vinifera", "details": "in vivo", "method": "Three sections of a table grape plantation in southern Spain (type Red Globe) were treated with the following spray mixtures during the dormancy phase 45 days before natural bud burst (February 5):\nE2-0: 600 liters per hectare of water with an addition of 0.1% Break-Thru® OE-446 E2-1: 600 liters per hectare of the spray mixture from example D-1 E2-18: 600 liters per hectare of the spray mixture from example D-18\nAs a result, the grapevine sprouts were evenly wetted.\nOn April 3, bud burst was recorded numerically.\nBudding means number of buds that have developed at least one leaf after n days, based on the total number of buds on the sprouts at time n=0 days (day of application of spray mixture)."}},
  "data": [
    {"smiles": "CC(=O)NC#N.[Na]", "note": "[Example A-1, Sodium Acetylcyanamide]", "values": [
      {"measurement": "Bud development stage, wine sprouts C4", "setting": "[1]; T1 (14 d), 0.15 mol (A-14, A-15: 0.075 mol) per 500 g solution", "value": 0},
      {"measurement": "Bud development stage, wine sprouts C4", "setting": "[1]; T2 (16 d)", "value": 0},
      {"measurement": "Bud development stage, wine sprouts C4", "setting": "[1]; T3 (21 d)", "value": 0},
      {"measurement": "Bud development stage, wine sprouts C4", "setting": "[1]; T4 (27 d)", "value": 1},
      {"measurement": "Bud development stage, wine sprouts C4", "setting": "[1]; T5 (36 d)", "value": 4},
      {"measurement": "Bud development stage, wine sprouts C4", "setting": "[1]; T6 (56 d)", "value": 5},
      {"measurement": "Dormancy-breaking effect according to the definition, wine C4", "setting": "[1]; stage 4 reached or exceeded after 36 days vs negative control", "value": "dormancy-breaking effect"},
      {"measurement": "Effectiveness compared with prior art treatment with cyanamide", "setting": "[2]", "value": "as effective as the prior art treatment with cyanamide"}
    ]}
  ]
}
